We go through nine molecules from ChEMBL document CHEMBL5325456, “5-(4-Hydroxyphenyl)-3H-1,2-dithiole-3-thione derivatives of brefeldin A: Design, synthesis and cytotoxicity in MDA-MB-231 human breast cancer cells” (Bioorg Med Chem, 2023).

pIC50: −log10 of the molar value.

A short description of series [1]: Selectivity index, ratio of IC50 for antiproliferative activity against human L02 cells to IC50 for antiproliferative activity against human MDA-MB-231 cells. The settings on record: L02 cells and MDA-MB-231 cells, read-out: Ratio IC50. Type of series: toxicity, cell-based.
A further series has as its system A549. As to the kind of experiment: Antiproliferative activity against human A549 cells assessed as reduction in cell viability incubated for 48 hrs by CCk-8 assay. Type of series: functional, cell-based. The settings on record: A549, 48 h.
Series [2] can be described thus: Antiproliferative activity against human L02 cells assessed as reduction in cell viability incubated for 48 hrs by CCk-8 assay. It is filed as toxicity, cell-based.
Another series concerns DU-145. Description: Antiproliferative activity against human DU-145 cells assessed as reduction in cell viability incubated for 48 hrs by CCk-8 assay. Type of series: functional, cell-based. The settings on record: DU-145, 48 h.
The test system of the next series is HeLa. Description: Antiproliferative activity against human HeLa cells assessed as reduction in cell viability incubated for 48 hrs by CCk-8 assay. It is filed as functional, cell-based.
The next series relates to MDA-MB-231. Description: Antiproliferative activity against human MDA-MB-231 cells assessed as reduction in cell viability incubated for 48 hrs by CCk-8 assay. It is filed as functional, cell-based. The settings on record: MDA-MB-231, 48 h.
A further series has as its system A-375. Description: Antiproliferative activity against human A-375 cells assessed as reduction in cell viability incubated for 48 hrs by CCk-8 assay. The settings on record: A-375, 48 h. It is filed as functional, cell-based.
For the next series, the system named is HepG2. As to the kind of experiment: Antiproliferative activity against human HepG2 cells assessed as reduction in cell viability incubated for 48 hrs by CCk-8 assay. The settings on record: HepG2, 48 h. Type of series: functional, cell-based.

With `C[C@H]1CCC/C=C/[C@@H]2C[C@H](O)C[C@H]2[C@H](OC(=O)CCC(=O)OCCCCCCOc2ccc(-c3cc(=S)ss3)cc2)/C=C/C(=O)O1`, in series [1], the selectivity ratio worked out at 2.31. The pIC50 is 5.82 in the series with A549; 5.44 in the series with DU-145; 6.11 with HeLa; 5.85 with MDA-MB-231; 6.19 in the series on A-375; 5.47 in the series on HepG2. Further, in series [2], the half-inhibitory concentration (IC50) at 48 h was 3.26 µM.
In the case of `C[C@H]1CCC/C=C/[C@@H]2C[C@H](O)C[C@H]2[C@H](OC(=O)CCC(=O)OCCCCOc2ccc(-c3cc(=S)ss3)cc2)/C=C/C(=O)O1`, the selectivity ratio in series [1] is 3.28. For the same molecule, the negative-log IC50 (pIC50) with A549 was 5.84; in the series with DU-145, 6.06; in the series on HeLa it was 6.07; with MDA-MB-231, 6.30; in the series with A-375 it was 6.08; in the series on HepG2, 6.14. Moreover, in series [2], the IC50 at 48 h turned out to be 1.64 µM.
For the molecule `C[C@H]1CCC/C=C/[C@@H]2C[C@H](O)C[C@H]2[C@H](OC(=O)CCC(=O)OCCOc2ccc(-c3cc(=S)ss3)cc2)/C=C/C(=O)O1`, the selectivity ratio in series [1] is 6.97. Besides, the negative-log IC50 (pIC50) with A549 was 5.56; in the series with DU-145, 5.73; in the series with HeLa, 5.46; in the series on MDA-MB-231 it was 5.92; with A-375, 5.77; with HepG2 it was 5.33. In addition, the IC50 at 48 h in series [2] is 8.3 µM.
In the case of `C[C@H]1CCC/C=C/[C@@H]2C[C@H](O)C[C@H]2[C@H](OC(=O)CCCC(=O)Oc2ccc(-c3cc(=S)ss3)cc2)/C=C/C(=O)O1`, the selectivity ratio in series [1] was 2.57. In addition, the pIC50 is 4.74 with A549; 4.71 in the series with DU-145; 5.28 in the series on HeLa; 5.02 with MDA-MB-231; 4.52 in the series on A-375; 4.75 with HepG2. The IC50 at 48 h in series [2] amounted to 24.8 µM.
Take `C[C@H]1CCC/C=C/[C@@H]2C[C@H](O)C[C@H]2[C@H](OC(=O)CCC(=O)Oc2ccc(-c3cc(=S)ss3)cc2)/C=C/C(=O)O1`: in series [1], the selectivity ratio came to 6.06. Moreover, the negative-log IC50 (pIC50) is 5.50 in the series with A549; 4.79 in the series on DU-145; 5.63 with HeLa; 5.87 in the series with MDA-MB-231; 5.44 with A-375; 5.13 in the series with HepG2. Besides, the IC50 at 48 h in series [2] worked out at 8.18 µM.
As to `C[C@H]1CCC/C=C/[C@@H]2C[C@H](O)C[C@H]2[C@H](OC(=O)c2ccccc2C(=O)Oc2ccc(-c3cc(=S)ss3)cc2)/C=C/C(=O)O1`, the selectivity ratio in series [1] stood at 2.64. Further, the pIC50 was 6.48 in the series with A549; less than 4.40 with DU-145; 6.52 with HeLa; 5.87 in the series on MDA-MB-231; 5.97 in the series with A-375; 5.15 with HepG2. The 50% inhibitory concentration (IC50) at 48 h in series [2] was 3.55 µM.
With `C[C@H]1CCC/C=C/[C@@H]2C[C@H](O)C[C@H]2[C@H](O)/C=C/C(=O)O1` [BREFELDIN A], the selectivity ratio in series [1] was determined as 1.74. Also, the negative logarithm of the IC50 (pIC50) in the series on A549 is 7.25; in the series with DU-145 it was 6.80; in the series with HeLa it was 7.36; with MDA-MB-231, 7.27; in the series on A-375 it was 7.41; with HepG2 it was 6.92. Also, the IC50 at 48 h in series [2] was determined as 0.094 µM.
`C[C@H]1CCC/C=C/[C@@H]2C[C@H](O)C[C@H]2[C@H](OC(=O)CCCC(=O)OCCCCOc2ccc(-c3cc(=S)ss3)cc2)/C=C/C(=O)O1`: the selectivity ratio in series [1] stood at 2.69. For the same molecule, the negative logarithm of the IC50 (pIC50) was 5.98 with A549; 6.37 in the series on DU-145; 6.64 in the series with HeLa; 6.80 with MDA-MB-231; 6.03 in the series with A-375; 6.36 in the series with HepG2. For the same molecule, in series [2], the IC50 at 48 h was 0.43 µM.
Turning to `C[C@H]1CCC/C=C/[C@@H]2C[C@H](O)C[C@H]2[C@H](OC(=O)CCCC(=O)OCCCCCCOc2ccc(-c3cc(=S)ss3)cc2)/C=C/C(=O)O1`, the selectivity ratio in series [1] came to 6.35. Further, the pIC50 with A549 is 6.17; in the series with DU-145 it was 5.95; in the series with HeLa, 6.43; in the series with MDA-MB-231 it was 6.29; with A-375, 6.28; in the series on HepG2 it was 5.76. Besides, the IC50 at 48 h in series [2] turned out to be 3.24 µM.
